According to US20200179339A1, “PHARMACEUTICALS COMPOSITIONS FOR TREATMENT OF ATOPIC DERMATITIS” (CADILA HEALTHCARE LIMITED, priority 2018, published 2020):

Columns and labels:
[1] = system: oxazolone induced atopic dermatitis in mice; experiment: Ear thickness in oxazolone induced atopic dermatitis in mice; type: in vivo, female balb/c mice; set-up: Change in ear thickness: unit not given beside the values; settings: for percentage inhibition in ear thickness (atopic dermatitis): topical; for % change: topical day 5 and day 6, ear thickness vs vehicle control; for Change in ear thickness: topical on left ear day 5 and day 6
Experimental: (§1) The 7-8 week old female balb/c mice used for the study were divided into four groups of six mice each. Animal shaved on their abdomen region. On day-1, Oxazolone (Sigma chemical Co. USA) was dissolved in ethanol and applied at a dose volume is 500 ug/100 μl/mouse on shaved abdomen side as sensitized dose. On day 5, basal ear thickness was measured and oxazolone (dissolved in acetone, (100 μg/20 μl)) applied on left side ear at a dose volume of 20 μl/mouse on day 5 and day 6. Post Two hours of oxazolone application, treatment drugs applied on left ear respectively. Treatment was applied on day 5 and day 6 and ear thickness was measured on day 5 (basal), day 6 and day 7.
All animals were assessed for the ear thickness measurement. Animals were sacrificed on day 7, Ear weight were taken and ear were collected for histology and gene expression.
as §1, with “into five” for “into four”, “20 μ/mouse” for “20 μl/mouse”
All animals were assessed for the ear thickness measurement. Animals were sacrificed on day 7, Ear weight were taken.

[2] = system: cyclo-oxygenase enzymes (COX); settings: background statement; cited from earlier work
[3] = Study-1, text, Apremilast 3%, Diclofenac 1.5%
[4] = Study-1, Apremilast 3%, Diclofenac 1.5%
[5] = Study-1, Apremilast 3%, Diclofenac 1.5%, vehicle control 0.3
[6] = Study-2, text, Apremilast 1%, Diclofenac 1%
[7] = Study-2, Apremilast 1%, Diclofenac 1%
[8] = Study-2, Apremilast 1%, Diclofenac 1%, vehicle control 0.44

Row | SMILES | percentage inhibition in ear thickness (atopic dermatitis) [1, 3] | % change [1, 4] | Change in ear thickness [1, 5] | percentage inhibition in ear thickness (atopic dermatitis) [1, 6] | % change [1, 7] | Change in ear thickness [1, 8] | approximate relative COX-1/COX-2 specificity ratio [2]
1 | CCOc1cc([C@@H](CS(C)(=O)=O)N2C(=O)c3cccc(NC(C)=O)c3C2=O)ccc1OC [Apremilast, (+)-2-[1-(3-ethoxy-4-methoxyphenyl)-2-methanesulfonylethyl]-4-acetylaminoisoindolin-1,3-dione] | 38% | 38.6% | 0.18 | 45% | 45.1% | 0.24 | –
2 | O=C([O-])Cc1ccccc1Nc1c(Cl)cccc1Cl.[Na+] [Diclofenac, sodium salt of [2-(2,6-Dichloroanilino)phenyl]acetic acid] | 64% | 63.8% | 0.11 | 37% | 36.8% | 0.28 | one
